The values that follow come from ChEMBL document CHEMBL4393707, “Synthesis and evaluation of new quinazolin-4(3H)-one derivatives as potent antibacterial agents against multidrug resistant Staphylococcus aureus and Mycobacterium tuberculosis” (Eur J Med Chem, 2019).

Series [1] deals with Staphylococcus aureus. In words: Antibacterial activity against Staphylococcus aureus ATCC 29213 assessed as time required to increase 1 log10 CFU at MIC incubated for 1 hr followed by compound washout and measured at 1 hr intervals (reference value: 2 hrs). In kind it is functional.
Series [2] relates to Staphylococcus aureus. The experiment in a line: Antibacterial activity against vancomycin-resistant Staphylococcus aureus VRS4 incubated for 16 to 18 hrs by broth microdilution assay. Type of series: functional. (In general: Broth dilution looks for growth in wells or tubes with falling amounts of substance.)
Series [3] has as its system Staphylococcus aureus. The experiment in a line: Antibacterial activity against Staphylococcus aureus ATCC 29213 assessed as time required to increase 1 log10 CFU at 10 times MIC incubated for 1 hr followed by compound washout and measured at 1 hr intervals (reference value: 2 hrs). Type of series: functional.
For series [4], the system named is Staphylococcus aureus. In words: Antibacterial activity against Staphylococcus aureus ATCC 29213 assessed as post antibiotic effect time at 10 times MIC incubated for 1 hr followed by compound washout and measured at 1 hr intervals (reference value: 0 hrs). In kind it is functional.
The test system of series [5] is Staphylococcus aureus. In words: Antimicrobial activity against Staphylococcus aureus ATCC 29213 infected in BALB/c mouse model of neutropenic thigh infection assessed reduction in bacterial levels in thigh at 25 mg/kg, ip administered 3 hrs post infection twice at interval of 3 hrs between injections and measured after 24 hrs. In kind it is functional, organism-based.

Series [6] relates to Staphylococcus aureus. In words: Antibacterial activity against vancomycin-resistant Staphylococcus aureus VRS1 incubated for 16 to 18 hrs by broth microdilution assay. In kind it is functional.
Series [7] has as its system Staphylococcus aureus. In words: Antibacterial activity against Staphylococcus aureus ATCC 29213 assessed as post antibiotic effect time at MIC incubated for 1 hr followed by compound washout and measured at 1 hr intervals (reference value: 0 hrs). In kind it is functional.
Series [8] deals with Staphylococcus aureus. In words: Antibacterial activity against vancomycin-resistant Staphylococcus aureus VRS12 incubated for 16 to 18 hrs by broth microdilution assay. Type of series: functional.
For series [9], the system named is Staphylococcus aureus. In words: Antibiofilm activity against Staphylococcus aureus ATCC 29213 at 10 times MIC incubated 48 hrs by crystal violet staining based assay relative to control. In kind it is functional.
Series [10] relates to Staphylococcus aureus. In words: Antibacterial activity against Staphylococcus aureus ATCC 29213 incubated for 16 to 18 hrs by broth microdilution assay. Type of series: functional.
The next series relates to Escherichia coli. In words: Antibacterial activity against Escherichia coli ATCC 25922 incubated for 16 to 18 hrs by broth microdilution assay. In kind it is functional.
The next series deals with Klebsiella pneumoniae. In words: Antibacterial activity against Klebsiella pneumoniae ATCC BAA-1705 incubated for 16 to 18 hrs by broth microdilution assay. Type of series: functional.
A further series has as its system Pseudomonas aeruginosa. In words: Antibacterial activity against Pseudomonas aeruginosa ATCC 27853 incubated for 16 to 18 hrs by broth microdilution assay. Type of series: functional.
For another series, the system named is Acinetobacter baumannii. The experiment in a line: Antibacterial activity against Acinetobacter baumannii BAA1605 incubated for 16 to 18 hrs by broth microdilution assay. In kind it is functional.
Series [11] relates to Mycobacterium tuberculosis. In words: Antitubercular activity against Mycobacterium tuberculosis H37Rv after 7 days by resazurin dye based assay. Type of series: functional. Particulars: 168 h.
A short description of series [12]: Cytotoxicity against African green monkey Vero cells assessed as reduction in cell viability after 72 hrs by MTT assay. Type of series: cell-based. Particulars: chlorocebus sabaeus.
Series [13] is described as follows: Selectivity index, ratio of CC50 for African green monkey Vero cells to MIC for Staphylococcus aureus ATCC 29213. Type of series: toxicity. The settings on record: read-out: Selectivity Index.
The subject of series [14] is Staphylococcus aureus. The experiment in a line: Antibacterial activity against methicillin-resistant Staphylococcus aureus NR10198 incubated for 16 to 18 hrs by broth microdilution assay. In kind it is functional.
Series [15] deals with Staphylococcus aureus. In words: Antibacterial activity against methicillin-resistant Staphylococcus aureus NR10194 incubated for 16 to 18 hrs by broth microdilution assay. Type of series: functional.
For series [16], the system named is Staphylococcus aureus. In words: Antibacterial activity against methicillin-resistant Staphylococcus aureus NR10193 incubated for 16 to 18 hrs by broth microdilution assay. Type of series: functional.
Series [17] relates to Staphylococcus aureus. In words: Antibacterial activity against methicillin-resistant Staphylococcus aureus NR119 incubated for 16 to 18 hrs by broth microdilution assay. Type of series: functional.
For series [18], the system named is Staphylococcus aureus. In words: Antibacterial activity against methicillin-susceptible Staphylococcus aureus ATCC 29213 incubated for 16 to 18 hrs by broth microdilution assay. Type of series: functional.
The test system of series [19] is Staphylococcus aureus. The experiment in a line: Antibacterial activity against methicillin-resistant Staphylococcus aureus NR10191 incubated for 16 to 18 hrs by broth microdilution assay. In kind it is functional.
In series [20] the test system is Staphylococcus aureus. In words: Antibacterial activity against methicillin-resistant Staphylococcus aureus NR10129 incubated for 16 to 18 hrs by broth microdilution assay. In kind it is functional.
Series [21] relates to Staphylococcus aureus. In words: Antibacterial activity against methicillin-resistant Staphylococcus aureus NR10192 incubated for 16 to 18 hrs by broth microdilution assay. In kind it is functional.
Series [22] concerns Staphylococcus aureus. In words: Antibacterial activity against methicillin-resistant Staphylococcus aureus NR100 incubated for 16 to 18 hrs by broth microdilution assay. In kind it is functional.
The subject of series [23] is Staphylococcus aureus. The experiment in a line: Antibacterial activity against methicillin-resistant Staphylococcus aureus NR10186 incubated for 16 to 18 hrs by broth microdilution assay. In kind it is functional.
Series [24] in a line: Selectivity index, ratio of CC50 for African green monkey Vero cells to MIC for Mycobacterium tuberculosis H37Rv. In kind it is toxicity. The settings on record: read-out: Selectivity Index.

Each structure is given as a SMILES string. ≈ marks a conversion by molar mass, not a printed value. Calls of active or inactive are those of the source. No cut-off for these calls is given here.

Consider `CN[C@H](CC(C)C)C(=O)N[C@H]1C(=O)N[C@@H](CC(N)=O)C(=O)N[C@H]2C(=O)N[C@H]3C(=O)N[C@H](C(=O)N[C@H](C(=O)O)c4cc(O)cc(O)c4-c4cc3ccc4O)[C@H](O)c3ccc(c(Cl)c3)Oc3cc2cc(c3O[C@@H]2O[C@H](CO)[C@@H](O)[C@H](O)[C@H]2O[C@H]2C[C@](C)(N)[C@H](O)[C@H](C)O2)Oc2ccc(cc2Cl)[C@H]1O` [VANCOMYCIN], for which the Time was 3 h in the series with Staphylococcus aureus [1], 4 h in the series with Staphylococcus aureus [3], 2 h with Staphylococcus aureus [4] and 1 h with Staphylococcus aureus [7]. Also, the minimal inhibitory concentration (MIC) in the series with Staphylococcus aureus [2], in the series with Staphylococcus aureus [6] and against Staphylococcus aureus [8] was greater than 64 µg/mL each time. For the same molecule, in the series with Staphylococcus aureus [5], the outcome was Active. Also, the Activity in the series on Staphylococcus aureus [9] was determined as 7.7%.

As for `N#Cc1ccc(/C=C/c2nc3ncccc3c(=O)n2-c2ccc(S)cc2)cc1`, the MIC against Staphylococcus aureus [10] was 2 µg/mL (≈ 5.23 µM); in the series with Escherichia coli it was greater than 64 µg/mL; against Klebsiella pneumoniae, greater than 64 µg/mL; in the series with Pseudomonas aeruginosa, greater than 64 µg/mL; against Acinetobacter baumannii, greater than 64 µg/mL; in series [11] it was greater than 64 µg/mL. Also, in [12], the CC50 at 72 h is greater than 10 µg/mL. Further, in series [13], the selectivity ratio was greater than 5.

In the case of `C[C@H]1COc2c(N3CCN(C)CC3)c(F)cc3c(=O)c(C(=O)O)cn1c23.C[C@H]1COc2c(N3CCN(C)CC3)c(F)cc3c(=O)c(C(=O)O)cn1c23.O` [LEVOFLOXACIN], the minimum inhibitory concentration (MIC) with Staphylococcus aureus [10] was 0.125 to 0.25 µg/mL; in the series on Staphylococcus aureus [14] it was 32 µg/mL; against Staphylococcus aureus [2] it was greater than 64 µg/mL; with Staphylococcus aureus [15], 0.5 µg/mL; against Klebsiella pneumoniae, 64 µg/mL; against Staphylococcus aureus [16] it was 32 µg/mL. Moreover, the MIC is 16 µg/mL with Staphylococcus aureus [17]; 0.5 µg/mL against Pseudomonas aeruginosa; less than 0.5 µg/mL against Staphylococcus aureus [18]; 16 to 32 µg/mL in the series on Staphylococcus aureus [19]; 32 µg/mL against Staphylococcus aureus [6]; 0.5 µg/mL with Staphylococcus aureus [20]. Moreover, the MIC in the series on Staphylococcus aureus [21] is 4 to 8 µg/mL; against Staphylococcus aureus [8], 32 to 64 µg/mL; with Staphylococcus aureus [22], less than 0.5 µg/mL; with Staphylococcus aureus [23], 4 to 8 µg/mL. Also, the Time in the series on Staphylococcus aureus [1] came out at 3 h; in the series with Staphylococcus aureus [3], 3 h; with Staphylococcus aureus [4], 1 h; in the series on Staphylococcus aureus [7], 1 h. The Activity in the series with Staphylococcus aureus [9] stood at 30.6%.

As to `Cc1nc2cc(-c3ccccc3)ccc2c(=O)n1-c1cccc(Cl)c1`, the minimum inhibitory concentration (MIC) is greater than 64 µg/mL with Staphylococcus aureus [10]; greater than 64 µg/mL against Escherichia coli; greater than 64 µg/mL in the series with Klebsiella pneumoniae; greater than 64 µg/mL against Pseudomonas aeruginosa; greater than 64 µg/mL in the series on Acinetobacter baumannii; 16 µg/mL (≈ 46.1 µM) in [11]. For the same molecule, the CC50 at 72 h in series [12] is 12.5 µg/mL (≈ 36 µM). The selectivity ratio in series [24] was 0.78.

Turning to `Cc1nc2ccc(OCc3cn(-c4ccc(Cl)cc4)nn3)cc2c(=O)n1-c1ccccc1`, the MIC in the series on Staphylococcus aureus [10] is greater than 64 µg/mL; in the series with Escherichia coli, greater than 64 µg/mL; against Klebsiella pneumoniae, greater than 64 µg/mL; against Pseudomonas aeruginosa it was greater than 64 µg/mL; against Acinetobacter baumannii, greater than 64 µg/mL; in [11] it was 16 µg/mL (≈ 36 µM). Moreover, the CC50 at 72 h in series [12] is greater than 33.3 µg/mL. In addition, in series [24], the selectivity ratio was greater than 2.08.

Take `C#CCNc1ccc2c(=O)n(-c3ccccc3)c(C)nc2c1`: the MIC against Staphylococcus aureus [10] was greater than 64 µg/mL; in the series on Escherichia coli, greater than 64 µg/mL; against Klebsiella pneumoniae, greater than 64 µg/mL; against Pseudomonas aeruginosa, greater than 64 µg/mL; against Acinetobacter baumannii, greater than 64 µg/mL; in series [11], 4 µg/mL (≈ 13.8 µM). The CC50 at 72 h in series [12] was greater than 100 µg/mL. The selectivity ratio in [24] is greater than 25.

With `C[C@@H](O)[C@H]1C(=O)N2C(C(=O)O)=C(S[C@@H]3CN[C@H](C(=O)N(C)C)C3)[C@H](C)[C@H]12` [MEROPENEM], the MIC is 0.25 µg/mL (≈ 0.652 µM) in the series with Staphylococcus aureus [10]; 32 µg/mL (≈ 83.4 µM) in the series on Staphylococcus aureus [14]; greater than 64 µg/mL against Staphylococcus aureus [2]; 0.5 µg/mL (≈ 1.3 µM) with Staphylococcus aureus [15]; 32 µg/mL (≈ 83.4 µM) against Staphylococcus aureus [16]; greater than 64 µg/mL with Staphylococcus aureus [17]. For the same molecule, the minimal inhibitory concentration (MIC) against Staphylococcus aureus [18] is less than 0.5 µg/mL; in the series with Staphylococcus aureus [19], greater than 64 µg/mL; in the series with Staphylococcus aureus [6], greater than 64 µg/mL; against Staphylococcus aureus [20], 16 µg/mL (≈ 41.7 µM); in the series on Staphylococcus aureus [21] it was 4 to 8 µg/mL (≈ 10.4 to 20.9 µM); in the series with Staphylococcus aureus [8] it was greater than 64 µg/mL. For the same molecule, the MIC in the series on Staphylococcus aureus [22] is greater than 64 µg/mL; in the series with Staphylococcus aureus [23], 16 to 32 µg/mL (≈ 41.7 to 83.4 µM).

Take `Cc1nc2cc(-c3ccc(F)cc3)ccc2c(=O)n1-c1cccc(Cl)c1`: the MIC in the series on Staphylococcus aureus [10] was greater than 64 µg/mL; in the series on Escherichia coli, greater than 64 µg/mL; in the series on Klebsiella pneumoniae it was greater than 64 µg/mL; with Pseudomonas aeruginosa, greater than 64 µg/mL; in the series with Acinetobacter baumannii, greater than 64 µg/mL; in series [11], 16 µg/mL (≈ 43.9 µM). Moreover, in series [12], the half-maximal cytotoxic concentration (CC50) at 72 h was greater than 15 µg/mL. Moreover, the selectivity ratio in [24] is greater than 0.93.

Take `C#Cc1cccc(-n2c(/C=C/c3ccc(C#N)cc3)nc3cccc(F)c3c2=O)c1`: the minimum inhibitory concentration (MIC) is 0.25 µg/mL (≈ 0.639 µM) against Staphylococcus aureus [10]; greater than 64 µg/mL with Escherichia coli; greater than 64 µg/mL in the series with Klebsiella pneumoniae; greater than 64 µg/mL against Pseudomonas aeruginosa; greater than 64 µg/mL in the series on Acinetobacter baumannii; greater than 64 µg/mL in series [11]. Moreover, in series [12], the CC50 at 72 h was greater than 10 µg/mL. The selectivity ratio in series [13] was greater than 40.

For `C#CCOc1cccc(-n2c(/C=C/c3ccc(C#N)cc3)nc3cccc(F)c3c2=O)c1`, the MIC against Staphylococcus aureus [10] was 0.5 µg/mL (≈ 1.19 µM); against Escherichia coli it was greater than 64 µg/mL; in the series with Klebsiella pneumoniae, greater than 64 µg/mL; against Pseudomonas aeruginosa, greater than 64 µg/mL; in the series with Acinetobacter baumannii, greater than 64 µg/mL; in series [11], 2 µg/mL (≈ 4.75 µM). Moreover, the CC50 at 72 h in [12] is 5 to 10 µg/mL (≈ 11.9 to 23.7 µM). For the same molecule, the selectivity ratio in [24] was greater than 5; in series [13] it was greater than 10.

What is called MIC is the lowest concentration found to suppress growth. For orientation: CC50 means the concentration giving 50% cytotoxicity.
